Read-outs that look alike come from different tables or passages of the source.
Legend:
[1] = target: T1, eIF4E (Mus musculus, UniProt P63073); assay: Binding affinity of cap analogs to eIF4E by fluorescence titration; details: equilibrium association constant; 20 °C, pH 7.2, ionic strength 150 mM
Procedure: Fluorescence titration measurements were carried out on an LS-50B or LS-55 spectrofluorometer (Perkin Elmer Co.) at 20.0±0.2° C. in 50 mM HEPES/KOH (pH 7.2), 0.5 mM EDTA, and 1 mM DTT, with ionic strength adjusted to 150 mM by addition of KCl. Various cap analogue solutions, of increasing concentration, were added in 1 μl aliquots to 1.4 ml of 0.1 or 0.2 μM protein solutions. Fluorescence intensities were measured with excitation at 280 nm or 295 nm with 2.2 nm bandwidth, and detection at 337 nm with 4 nm bandwidth and a 290-nm cut-off filter. The data were corrected for sample dilution and inner filter effects. Equilibrium association constants (Kas) were determined by fitting the theoretical dependence of fluorescence intensity on cap analog concentration to the experimental data, as otherwise described in A. Niedźwiecka et al., “Biophysical studies of eIF4E cap-binding protein: recognition of mRNA 5′ cap structure and synthetic fragments of eIF4G and 4E-BP1 proteins,” J. Mol. Biol., vol. 312, pp. 615-635 (2002). The concentration of protein was allowed to be a free parameter in the equilibrium equation, to determine the amount of “active” protein. The final Kas was calculated as a weighted average of three to ten independent titrations, with the weights taken as the reciprocals of the squares of the numerical standard deviations. Numerical nonlinear least-square regression analysis was performed using ORGIN 6.0 (Microcal Software Inc., USA).
The binding affinities of eukaryotic eIF4E for various cap analogs were determined by fluorescence quenching. This biophysical test allows one to predict the potential efficacy of cap analogs in translation. Those having higher affinities for eIF4E than the unmodified cap analog (m^7GpppG) are expected to be better recognized by the translational machinery, leading to higher translational efficiencies. They also are expected to compete more effectively with unmodified mRNA when free cap dinucleotides are used to inhibit translation. See generally E. Grudzien-Nogalska et al., “Synthesis of anti-reverse cap analogs (ARCAs) and their applications in mRNA translation and stability,” Methods Enzymol., vol. 431, pp. 203-227 (2007).

[2] = target: T2, Human DcpS (Homo sapiens, UniProt Q96C86); assay: Assay of susceptibility to DcpS (RP HPLC); format: biochemical; details: 40 μM cap analog, 30° C., up to 120 min
T2 construct: made in house; host or cells: Escherichia coli
T2 sequence (Q96C86 1-337): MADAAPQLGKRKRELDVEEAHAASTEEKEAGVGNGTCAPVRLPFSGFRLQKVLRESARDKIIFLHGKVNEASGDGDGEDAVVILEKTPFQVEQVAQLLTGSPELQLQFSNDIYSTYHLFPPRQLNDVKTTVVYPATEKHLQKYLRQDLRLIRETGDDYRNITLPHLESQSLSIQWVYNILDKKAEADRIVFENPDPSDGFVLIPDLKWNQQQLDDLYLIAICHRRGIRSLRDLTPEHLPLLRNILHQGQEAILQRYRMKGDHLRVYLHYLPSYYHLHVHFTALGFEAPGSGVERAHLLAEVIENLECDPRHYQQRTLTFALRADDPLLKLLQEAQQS
Procedure: Human DcpS was expressed in Escherichia coli as described in L. Cohen et al., “Nematode m^7GpppG and m3^2,2,7GpppG decapping: activities in Ascaris embryos and characterization of C. elegans scavenger DcpS,” RNA, vol. 10, pp. 1609-1624 (2004). A 15 μM solution of the protein in 20 mM Tris buffer, pH 7.5, containing 50 mM KCl, 0.2 mM EDTA, 1 mM DTT, 0.5 mM PMSF, and 20% glycerol was stored at −80° C. until used. Enzymatic reactions were carried out at 30° C. in 500 μl of 50 mM Tris-HCl, pH 7.9, containing 20 mM MgCl2 and 60 mM (NH4)2SO4. A 40 μM solution of the selected cap analog was treated with 5.0 μl of DcpS for 120 min. At times of 10, 30, 60, and 120 min, a 100-μl sample was collected from the reaction mixture and deactivated by incubation at 90° C. for 2 min. Samples were analyzed without further treatment by analytical RP HPLC with a linear gradient of methanol in 0.1 M KH2PO4, pH 6.0, from 0-50% over 15 min.

[3] = test system: rabbit reticulocyte lysate system; assay: In vitro translation efficiency of capped luciferase mRNA with 31-base poly(A) tail, method II transcripts; format: biochemical
Procedure: Capped, polyadenylated luciferase mRNAs were synthesized in vitro by PCR from a dsDNA template that contained the SP6 promoter, the 5′-UTR sequence of rabbit β-globin mRNA, the entire firefly luciferase coding region, and 31 adenosine residues. A typical transcription reaction mixture (40 μl) contained SP6 transcription buffer (Fermentas), 0.7 ug of DNA template, 1 U/μl RiboLock Ribonuclease Inhibitor (Fermentas), 0.5 mM each of ATP, CTP, and UTP, 0.1 mM GTP, and 0.5 mM dinucleotide cap analog. The reaction mixture was incubated at 37° C. for 5 min before addition of SP6 RNA polymerase (Fermentas) to a final concentration of 1 U/μl, and incubation then continued for 45 min at 37° C. The reaction mixture was treated with DNase as in Method I. RNA transcripts were purified with NucAway Spin Columns (Ambion). The integrity of transcripts and quantitation was performed as in Method I.
A micrococcal nuclease-treated rabbit reticulocyte lysate system (Flexi Rabbit Reticulocyte Lysate System, Promega) was used for in vitro translation. Translation reactions were performed in 10 μl for 60 min at 30° C. A typical reaction mixture contained 40% reticulocyte lysate, the 20 “standard” amino acids (0.01 mM each), MgCl2 (1.2 mM), potassium acetate (170 mM), and mRNA (five different concentrations of each transcript, ranging from 0.25 to 4 μg/ml). Luciferase activity was measured in a luminometer (Glomax, Promega). Linear regression was used to fit the data points (luciferase activity versus concentration of mRNA transcript), and translational efficiency was defined as the slope of this line. The relative translational efficiencies of the test mRNAs were compared to that of m^7GpppG-capped luciferase mRNA, the latter being defined as 1.0.

[4] = target: cap-dependent translation of luciferase mRNA in reticulocyte lysate; assay: Inhibition of cap-dependent translation in vitro by free cap analogs; format: biochemical, rabbit
Procedure: In vitro translation reactions were performed in 12.5 μl for 60 min at 30° C. under conditions favorable for cap-dependent translation. In some cases, the reaction mixture was incubated for 60 min at 30° C. prior to adding the dinucleotide cap analog (inhibitor) and m2^7,3′-OGppG-capped luciferase mRNA to start translation. In other cases, to analyze biological stability, the cap analog was incubated in the translation mixture for 60 min at 30° C. prior to adding the luciferase mRNA to start translation. A typical reaction mixture contained 56% reticulocyte lysate, the 20 “standard” amino acids (0.01 mM each), MgCl2 (1.2 mM), potassium acetate (170 mM), RiboLock Ribonuclease Inhibitor (0.32 U/μl), cap analog solution ( 1/10 of total reaction volume), and m2^7,3′-OGpppG-capped luciferase RNA. […] Reactions were performed with cap analog concentrations ranging from 0.12 to 100 μM. Luciferase activity was measured in a luminometer. […] The program OriginPro8 (OriginLab) was used for curve fitting with the equation qLUC=Z/(1+I/IC50)+N, where qLUC is the activity of luciferase synthesized in the presence of cap analog, Z is the activity of luciferase synthesized in the absence of cap analog, N is the activity of luciferase synthesized in a cap-independent manner, and I is the cap analog concentration.
Two type of experiments were carried out. In one set of experiments (condition A), a cap analog was added to the translation system together with luciferase mRNA. In the other set of experiments (condition B), the cap analog was incubated in the translation system for 60 min before addition of mRNA. […] There was a correlation between the resistance to hydrolysis by DcpS and the stability of analogs in the translation system.

[5] = Chemical stability in solution and on storage; format: physicochemical
Procedure: FIG. 5 depicts the synthesis of m2^7,2′-OGppSepG. The selenophosphate (PSeO3^−3) was prepared by a modification of the method described in R. Glass et al., “Selenophosphate,” Meth. Enzymol., vol. 252, pp. 309-315 (1995). Trimethylsilyl phosphite was treated with selenium in pyridine to give trimethylsilyl selenophosphate, which was then desilylated by methanol in the presence of triethylamine to give the selenophosphate triethylammonium salt. This compound was coupled with the imidazolide derivative of 7,2′-O-dimethylguanosine 5′-monophosphate (m2^7,2′-OGMP-Im) to give 7,2′-O-dimethylguanosine 5′-O-(2-selenodiphosphate) (m2^7,2′-OGDPβSe). […] The reaction was very rapid; essentially 100% conversion of m2^7,2′-OGMP-Im into m2^7,2′-OGDPβSe was observed by RP HPLC after 15 min. […] Thus, care was taken to maintain the pH at 7 or above during purification of m2^7,2′-OGDPβSe, which allowed the product to be isolated with 80% yield after ion-exchange chromatography. The m2^7,2′-OGDPβSe was then coupled with the imidazolide derivative of GMP in the presence of excess ZnCl2. Two peaks were observed by RP HPLC, corresponding to two m2^7,2′-OGppSepG diastereomers, which were designated D1 and D2 according to their elution order. However, the coupling proceeded slowly, and complete disappearance of m2^7,2′-OGDPβSe took about two days. The extended reaction time allowed partial hydrolysis of m2^7,2′-OGDPβSe to m2^7,2′-OGMP, and only a moderate reaction yield (40% conversion by HPLC, 25% isolated). The diastereomeric mixture of m2^7,2′-OGppSepG after isolation by ion-exchange chromatography was successfully resolved into pure diastereomers by RP HPLC. The products were characterized by mass spectrometry, ^1H NMR, and ^31P NMR to confirm structures and homogeneity.

[6] = target: T1, eIF4E; details: literature comparison; cited from earlier work
[7] = target: recombinant human Dcp2 (Homo sapiens, UniProt Q8IU60); details: mRNAs capped with the analog; cited from earlier work
[8] = test system: cultured mammalian cells; details: compared with ARCA-capped (m2^7,3′-OGpppG) mRNA; cited from earlier work
[9] = test system: cultured mammalian cells; details: compared with ARCA-capped mRNA; cited from earlier work
[10] = cap analog added together with luciferase mRNA, read-out: Inhibition of in vitro translation (IC50), condition A
[11] = cap analog incubated in translation system 60 min before addition of mRNA, read-out: Inhibition of in vitro translation (IC50), condition B

T1 sequence (P63073 28-217 limits assumed): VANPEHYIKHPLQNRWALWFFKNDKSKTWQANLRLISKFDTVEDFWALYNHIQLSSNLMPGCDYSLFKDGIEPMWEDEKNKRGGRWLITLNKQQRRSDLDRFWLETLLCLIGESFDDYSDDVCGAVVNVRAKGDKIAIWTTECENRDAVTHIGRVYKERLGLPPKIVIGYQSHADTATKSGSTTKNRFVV

## [BH3-]P(=O)(OP(=O)(O)OCC1OC(n2cnc3c(=O)[nH]c(N)nc32)C(O)C1O)OP(=O)(O)OCC1OC(n2c[n+](C)c3c(=O)[nH]c(N)nc32)C(O)C1O (single isomer, unassigned) [m^7GppBH3pG (D1), m^7GppBH3pG]
[1]
  Cap analog/eIF4E affinity (KAS): 44 ± 2 μM^−1
[2]
  Susceptibility to DcpS: resistant
[3]; experiment 4
  Translation efficiency in comparison to m^7GpppG-LUC-(A)31 mRNA, Experiment No. 4: 1.65
[3]; experiment 5
  Translation efficiency in comparison to m^7GpppG-LUC-(A)31 mRNA, Experiment No. 5: 2.17
[3]; mean of experiments
  Translation efficiency in comparison to m^7GpppG-LUC-(A)31 mRNA, Mean: 1.91
[4]; [10]
  IC50: 1600 ± 300 nM
[4]; [11]
  IC50: 1300 ± 100 nM

## [BH3-]P(=O)(OC[C@H]1O[C@@H](n2cnc3c(=O)[nH]c(N)nc32)[C@H](O)[C@@H]1O)OP(=O)(O)OP(=O)(O)OC[C@H]1O[C@@H](n2c[n+](C)c3c(=O)[nH]c(N)nc32)[C@H](O)[C@@H]1O (single isomer, unassigned) [m^7GpppBH3G (D2), m^7GpppBH3G]
[1]
  Cap analog/eIF4E affinity (KAS): 14.4 ± 0.6 μM^−1
[2]
  Susceptibility to DcpS: hydrolyzed
[4]; [10]
  IC50: 3100 ± 200 nM
[4]; [11]
  IC50: 16400 ± 800 nM

## COC1C(O)C(COP(=O)([O-])OP(O)(O)=[Se])OC1n1c[n+](C)c2c(=O)[nH]c(N)nc21 (centres unmarked) [m2^7,2′-OGDPβSe, 7,2′-O-dimethylguanosine 5′-O-(2-selenodiphosphate)]
[5]; acidic aqueous solutions, hydrolyzed to m2^7,2′-OGMP
  Stability in acidic aqueous solutions: unstable
[5]; neutral or basic solutions
  Stability in neutral or basic solutions: only moderately stable

## CO[C@H]1[C@@H](O)[C@H](n2c[n+](C)c3c(=O)[nH]c(N)nc32)O[C@@H]1COP(=O)([O-])OP(=O)(O)CP(=O)(O)OC[C@H]1O[C@@H](n2cnc3c(=O)[nH]c(N)nc32)[C@H](O)[C@@H]1O [m2^7,3′-OGppCH2pG]
[6]
  Binding affinity for eIF4E: lower binding affinity for eIF4E than that of m2^7,3′-OGpppG
[7]
  Hydrolysis of capped mRNA by recombinant human Dcp2 in vitro: resistant to hydrolysis
[8]
  Stability of capped mRNA in cultured cells: more stable than those capped with m2^7,3′-OGpppG
[9]
  Overall translational efficiency of capped mRNA in cells: lower overall translational efficiency

Source: patent US8519110B2, “mRNA cap analogs” (Board of Supervisors of Louisiana State University And …, priority 2008, dated 2013)
